Data taken from patent US11787819B2, “Crystalline salt of a multi-tyrosine kinase inhibitor, method of preparation, and use thereof” (Mirati Therapeutics, Inc., priority 2021, dated 2023).

Tests used:
[1] = Long term stability studies (related impurities by HPLC); format: physicochemical
Protocol: Long term stability studies for Compound 1 Malate Form A were conducted at 2-8° C. and 25° C./60% RH. For each test interval, samples are packaged into double polyethylene bags, individually zip tied and stored in 30 mL white screw cap HDPE bottles.

[2] = Pharmacokinetics in beagle dogs, oral capsule and IV solution; format: in vivo
Protocol: Centrifugation began within 1 hour of collection. Plasma was placed into 96-well tubes with barcode labels. Plasma was maintained on dry ice prior to storage at approximately −70° C.

[3] = Clinical trials, salt dosed in patients; format: in vivo, human
[4] = Dynamic vapor sorption (DVS); format: physicochemical; details: 25° C.
Protocol: Moisture sorption/desorption data were collected using a Surface Measurement System (SMS) DVS Intrinsic Instrument according to the manufacturer's instructions. Samples were not dried prior to analysis. Sorption/desorption data were collected over a range from 5% to 95% relative humidity (RH) at 10% RH increments under a nitrogen gas purge. The equilibrium criterion used for analysis was less than 0.0100% weight change in 5 min with a maximum equilibration time of three hours. Data were not corrected for initial moisture content of the samples.
The sample was recovered after completion of the isotherm and re-analyzed by XRPD
Sorption isotherms of Compound 1 Malate Form A were obtained using a SMS DVS Intrinsic moisture sorption analyzer, controlled by DVS Intrinsic Control software. The sample temperature was maintained at 25° C. by the instrument controls. The humidity was controlled by mixing streams of dry and wet nitrogen, with a total flow rate of 200 mL/min. The relative humidity was measured by a calibrated Rotronic probe (dynamic range of 1.0-100% RH), located near the sample. The weight change, (mass relaxation) of the sample as a function of % RH was constantly monitored by a microbalance (accuracy ±0.005 mg).
Briefly, Malate Form A was placed in a tared mesh stainless steel basket under ambient conditions. The sample was loaded and unloaded at 40% RH and 25° C. (typical room conditions) and allowed to equilibrate to 5% RH. A moisture sorption isotherm was performed as outlined below (1 scan per complete cycle). The standard isotherm was performed at 25° C. at 10% RH intervals over a 5-95% RH range. Data analysis was carried out within Microsoft Excel using the DVS Analysis Suite.

[5] = Karl Fischer water content; format: physicochemical
Protocol: Coulometric Karl Fischer analysis for water determination was performed using a Mettler Toledo DL39 Karl Fischer titrator with a Stromboli oven attachment. Prior to analyses samples tested were exposed to specified ambient relative humidity for ˜2 hours. Two replicates of the sample were placed into the drying oven set at a temperature of approximately 140 or 145° C. The drying oven was purged into the titrator vessel with dry nitrogen. The samples were then titrated by means of a generator electrode, which produces iodine by electrochemical oxidation: 2I−→I2+2e−. A NIST-traceable water standard (Hydranal Water Standard 10.0) was analyzed to check the operation of the coulometer.
(§1) Experiments were carried out by exposing solids of the test materials to various RH conditions. Preparation of specimens for XRPD analyses of post-stress solids was conducted with minimal exposure to ambient conditions. For selected samples, Karl Fischer analysis was done concurrently with XRPD testing. These samples therefore were kept in a glove bag equilibrated at the RH near to the exposure conditions, and the XRPD specimens were prepared inside the glove bag.
(§2) To investigate this further, stress experiments were conducted at 30% and 93% RH with minimal exposure to ambient RH so that XRPD and water content analyses could be considered representative of the stress conditions. […] In these experiments, a mixture of Malate Form A/Malate Material H was initially subjected to 93% RH for ˜8 days. It was then immediately analyzed by XRPD and Karl Fischer. The same sample was then re-exposed to 30% RH.

[6] = Critical relative humidity stress (XRPD of post-stress solids); format: physicochemical; details: RT
Protocol: Critical relative humidity (RH) experiments were designed to confirm the physical stability RH range for Malate Form A in the solid-state. […] The water content of Malate Form A and Material D were characterized by Karl Fischer analysis. (See Table 3A(2)).
as §1
A mixture of Malate Form A/Malate Material H was subjected to 0%, 11%, 23%, 69%, and 93% RH, each for approximately 5 days. It should be noted that the stress RH was not maintained during the XRPD specimen preparation and analyses. Therefore, solids from all these stress conditions were briefly exposed to ambient RH estimated as ˜21-23% at the time of the analyses.
as §2

[7] = Heat and elevated temperature/relative humidity stress (XRPD); format: physicochemical; details: heating at or above 40° C. (7 days at 40° C. and 80° C.; at or above 120° C. for ~1 hour)
Protocol: Heat and elevated temperature/RH stresses were designed to evaluate the physical stability of Compound 1 Malate Form A at elevated temperature. A mixture of Compound 1 Malate Form A/Malate Material H was utilized for testing. Experiments were conducted by heating solids of the test material at 40, 80, 120, and 140-145° C. Solids were also subjected to a combination of elevated temperature and RH, i.e. 40° C./75% RH and 30° C./60% RH (Table 3B).

[8] = Critical water activity slurries in organic solvent/water (XRPD); format: physicochemical; details: Acetone/H2O 98/2, 1 week, water activity 0.35
Protocol: An evaluation of the physical stability of Malate Form A under solvent-mediated conditions and assessment of the potential competition between solvate and hydrate formation were conducted by slurrying Malate Form A in various organic solvent/water systems (Table 3C).
An acetone/water system was selected for investigation of the stability at water activities between 0.4 and 0.9. Aqueous ACN, Dioxane, DMF, DMSO, and NMP were also investigated. A mixture of Malate Form A/Malate Material H was primarily used as the starting material. Samples of Malate Form A were combined and utilized as the starting material in a single experiment (acetone/water at low water activity).

[9] = Long term stability studies (related impurities by HPLC); format: physicochemical; details: 6 months storage at 40° C./75% RH, 12 months storage at 40° C./75% RH
[10] = Phase 1 single-dose crossover relative bioavailability study of capsule formulations in Healthy Subjects; format: in vivo, humans; details: 100 mg capsule, oral administration
Protocol: A Phase 1, 2-part, open-label, single-dose, crossover study was conducted to evaluate the relative bioavailability of Compound 1 Malate vs Compound 1 Free base capsule formulations in Healthy Subjects following oral administration.

[11] = Storage of Tartrate Form A-1 at 2-8° C. (XRPD); format: physicochemical; details: stored at 2-8° C. for 4 weeks

Compound: COCCNCc1ccc(-c2cc3nccc(Oc4ccc(NC(=O)C5(C(=O)Nc6ccc(F)cc6)CC5)cc4F)c3s2)nc1 [Compound 1 Malate Form A]
- Related Impurities (HPLC): Total impurities ([1]; 2-8° C., 0 month): 0.86%
- Related Impurities (HPLC): Total impurities ([1]; 2-8° C., 3 months): 0.87%
- Related Impurities (HPLC): Total impurities ([1]; 2-8° C., 6 months): 0.79%
- Related Impurities (HPLC): Total impurities ([1]; 2-8° C., 12 months): 0.78%
- Related Impurities (HPLC): Total impurities ([1]; 2-8° C., 24 months): 0.80%
- Long term stability (in words) ([1]; 24 months storage at 2-8° C. or 25° C./60% RH): stable
- Related Impurities (HPLC): Total impurities ([1]; 25° C./60% RH, 0 month): 0.86%
- Related Impurities (HPLC): Total impurities ([1]; 25° C./60% RH, 3 months): 0.76%
- Related Impurities (HPLC): Total impurities ([1]; 25° C./60% RH, 6 months): 0.83%
- Related Impurities (HPLC): Total impurities ([1]; 25° C./60% RH, 12 months): 0.80%
- Related Impurities (HPLC): Total impurities ([1]; 25° C./60% RH, 24 months): 0.90%
- Absolute Bioavailability (%) (DN AUC [Oral]/DN AUC [IV]) * 100 ([2]; beagle dogs, orally administered): 34.2%
- Improvement in oral bioavailability compared to the amorphous of Compound 1 free base plus surfactant ([2]; dogs, in the absence of surfactant): 2 fold
- Dose reduction achieved when the salt was dosed in patients (vs free base) [3]: 20-30%
- DVS weight loss, desorption ([4]; 15-5% RH): ~1.7%
- DVS weight loss, desorption ([4]; 95-15% RH): approximately 1.3 wt %
- DVS weight gain, sorption ([4]; between 5-25% RH): about 2.1 wt %
- DVS additional weight gain, sorption ([4]; between 25-95% RH): 1.1 wt %
- DVS weight loss upon equilibration at 5% RH ([4]; equilibration at 5% relative humidity): 1.2 wt %
- Water content (Karl Fischer) ([5]; after the 30% RH stress): 3.7%
- Water content, equivalent in mol ([5]; after the 30% RH stress): about 1.5 mol
- Water content (Karl Fischer) ([5]; after the 93% RH stress): 5.3%
- Water content, equivalent in mol ([5]; after the 93% RH stress): ~2.5 mol
- Calculated H2O content (KF, average value from 2 runs) ([5]; ~12% RH at sample preparation): Calculated H2O content: 3.47%
- Calculated H2O content (KF, average value from 2 runs) ([5]; ~17-18% RH at sample preparation, ~35 seconds for preparation): Calculated H2O content: 3.73%
- Calculated H2O content (KF, average value from 2 runs) ([5]; ~35-36% RH at sample preparation, ~35 seconds for preparation): Calculated H2O content: 5.32%
- XRPD Results after RH stress ([6]; 30% RH, 4 days (~33% ambient RH at sample preparation, glove bag)): Malate Form A, slight peak shifts (c)
- XRPD Results after RH stress ([6]; 93% RH, 1 day): Malate Form A,
- Relative humidity above which the form is physically stable ([6]; below it a reversible dehydration was seen): above 23 % RH
- Effect of heating (XRPD) [7]: partial dehydration
- XRPD Results after slurry [8]: Malate Form A + Malate Material B
- Long term stability (in words) [9]: stable

Compound: COCCNCc1ccc(-c2cc3nccc(Oc4ccc(NC(=O)C5(C(=O)Nc6ccc(F)cc6)CC5)cc4F)c3s2)nc1 [Compound 1 Malate, N-(3-fluoro-4-((2-(5-(((2-methoxyethyl)amino)methyl)pyridin-2-yl)thieno[3,2-b]pyridin-7-yl)oxy)phenyl)-N′-(4-fluorophenyl)cyclopropane-1,1-dicarboxamide (S)-2-hydroxysuccinate (1:1)]
- Bioequivalence to 120 mg Compound 1 Free base capsule formulation [10]: bioequivalence was achieved

Compound: COCCNCc1ccc(-c2cc3nccc(Oc4ccc(NC(=O)C5(C(=O)Nc6ccc(F)cc6)CC5)cc4F)c3s2)nc1 [Compound 1, N-(3-fluoro-4-((2-(5-(((2-methoxyethyl)amino)methyl)pyridin-2-yl)thieno[3,2-b]pyridin-7-yl)oxy)phenyl)-N′-(4-fluorophenyl)cyclopropane-1,1-dicarboxamide]
- Long term stability (in words) ([1]; room temperature, drug substance and drug product): poor long term stability

Compound: COCCNCc1ccc(-c2cc3nccc(Oc4ccc(NC(=O)C5(C(=O)Nc6ccc(F)cc6)CC5)cc4F)c3s2)nc1 [Tartrate Form A, N-(3-fluoro-4-((2-(5-(((2-methoxyethyl)amino)methyl)pyridin-2-yl)thieno[3,2-b]pyridin-7-yl)oxy)phenyl)-N′-(4-fluorophenyl)cyclopropane-1,1-dicarboxamide (2R,3R)-2,3-dihydroxysuccinate (1:1)]
- XRPD Results after storage [11]: Remained
